Test results reported in the NIST ThermoML archive (doi:10.1016/j.jct.2006.05.008).
± gives the expanded uncertainty stated by the source.

Assay: molar heat capacity at constant pressure
Details: 101.33 kPa

SMILES: CCC[n+]1ccn(C)c1.[Br-] [1-methyl-3-propylimidazolium bromide]
- molar heat capacity at constant pressure (222.97 K, Metastable crystal, Small (less than 1 g) adiabatic calorimetry): 182.89 ± 0.93 J/K/mol
- molar heat capacity at constant pressure (223.23 K, Liquid, Small (less than 1 g) adiabatic calorimetry): 261 ± 1.3 J/K/mol
- molar heat capacity at constant pressure (223.57 K, Liquid, Small (less than 1 g) adiabatic calorimetry): 261.15 ± 1.3 J/K/mol
- molar heat capacity at constant pressure (223.88 K, Crystal, Vacuum adiabatic calorimetry): 181.95 ± 0.38 J/K/mol
- molar heat capacity at constant pressure (224.15 K, Crystal, Vacuum adiabatic calorimetry): 182.18 ± 0.38 J/K/mol
- molar heat capacity at constant pressure (224.16 K, Liquid, Small (less than 1 g) adiabatic calorimetry): 260.59 ± 1.2 J/K/mol
- molar heat capacity at constant pressure (225.24 K, Liquid, Small (less than 1 g) adiabatic calorimetry): 261.29 ± 1.3 J/K/mol
- molar heat capacity at constant pressure (225.25 K, Crystal, Vacuum adiabatic calorimetry): 182.95 ± 0.38 J/K/mol
- molar heat capacity at constant pressure (225.39 K, Metastable crystal, Small (less than 1 g) adiabatic calorimetry): 184.41 ± 0.94 J/K/mol
- molar heat capacity at constant pressure (225.86 K, Liquid, Small (less than 1 g) adiabatic calorimetry): 261.58 ± 1.3 J/K/mol
- molar heat capacity at constant pressure (226.23 K, Crystal, Vacuum adiabatic calorimetry): 183.69 ± 0.38 J/K/mol
- molar heat capacity at constant pressure (226.24 K, Liquid, Small (less than 1 g) adiabatic calorimetry): 260.96 ± 1.2 J/K/mol
- molar heat capacity at constant pressure (226.63 K, Crystal, Vacuum adiabatic calorimetry): 183.97 ± 0.38 J/K/mol
- molar heat capacity at constant pressure (227.24 K, Liquid, Small (less than 1 g) adiabatic calorimetry): 261.74 ± 1.3 J/K/mol
- molar heat capacity at constant pressure (227.8 K, Metastable crystal, Small (less than 1 g) adiabatic calorimetry): 186.11 ± 0.95 J/K/mol
- molar heat capacity at constant pressure (228 K, Crystal, Vacuum adiabatic calorimetry): 184.96 ± 0.39 J/K/mol
- molar heat capacity at constant pressure (228.15 K, Liquid, Small (less than 1 g) adiabatic calorimetry): 262.01 ± 1.3 J/K/mol
- molar heat capacity at constant pressure (228.31 K, Crystal, Vacuum adiabatic calorimetry): 185.39 ± 0.39 J/K/mol
- molar heat capacity at constant pressure (228.33 K, Liquid, Small (less than 1 g) adiabatic calorimetry): 261.35 ± 1.2 J/K/mol
- molar heat capacity at constant pressure (229.25 K, Liquid, Small (less than 1 g) adiabatic calorimetry): 262.21 ± 1.3 J/K/mol
- molar heat capacity at constant pressure (229.38 K, Crystal, Vacuum adiabatic calorimetry): 186.04 ± 0.39 J/K/mol
- molar heat capacity at constant pressure (230.21 K, Metastable crystal, Small (less than 1 g) adiabatic calorimetry): 187.89 ± 0.95 J/K/mol
- molar heat capacity at constant pressure (230.39 K, Crystal, Vacuum adiabatic calorimetry): 186.96 ± 0.39 J/K/mol
- molar heat capacity at constant pressure (230.42 K, Liquid, Small (less than 1 g) adiabatic calorimetry): 261.8 ± 1.2 J/K/mol
- molar heat capacity at constant pressure (230.44 K, Liquid, Small (less than 1 g) adiabatic calorimetry): 262.44 ± 1.3 J/K/mol
- molar heat capacity at constant pressure (230.75 K, Crystal, Vacuum adiabatic calorimetry): 187.19 ± 0.39 J/K/mol
- molar heat capacity at constant pressure (231.26 K, Liquid, Small (less than 1 g) adiabatic calorimetry): 262.65 ± 1.3 J/K/mol
- molar heat capacity at constant pressure (232.13 K, Crystal, Vacuum adiabatic calorimetry): 188.21 ± 0.39 J/K/mol
- molar heat capacity at constant pressure (232.47 K, Crystal, Vacuum adiabatic calorimetry): 188.55 ± 0.39 J/K/mol
- molar heat capacity at constant pressure (232.51 K, Liquid, Small (less than 1 g) adiabatic calorimetry): 262.24 ± 1.2 J/K/mol
- molar heat capacity at constant pressure (232.62 K, Metastable crystal, Small (less than 1 g) adiabatic calorimetry): 189.5 ± 0.96 J/K/mol
- molar heat capacity at constant pressure (232.74 K, Liquid, Small (less than 1 g) adiabatic calorimetry): 263.08 ± 1.3 J/K/mol
- molar heat capacity at constant pressure (233.01 K, Crystal, Vacuum adiabatic calorimetry): 189.36 ± 0.39 J/K/mol
- molar heat capacity at constant pressure (233.27 K, Liquid, Small (less than 1 g) adiabatic calorimetry): 263.01 ± 1.3 J/K/mol
- molar heat capacity at constant pressure (233.5 K, Crystal, Vacuum adiabatic calorimetry): 189.25 ± 0.39 J/K/mol
- molar heat capacity at constant pressure (234.55 K, Crystal, Vacuum adiabatic calorimetry): 190.14 ± 0.39 J/K/mol
- molar heat capacity at constant pressure (234.61 K, Liquid, Small (less than 1 g) adiabatic calorimetry): 262.58 ± 1.3 J/K/mol
- molar heat capacity at constant pressure (234.88 K, Crystal, Vacuum adiabatic calorimetry): 190.37 ± 0.39 J/K/mol
- molar heat capacity at constant pressure (235.03 K, Liquid, Small (less than 1 g) adiabatic calorimetry): 263.49 ± 1.3 J/K/mol
- molar heat capacity at constant pressure (235.28 K, Liquid, Small (less than 1 g) adiabatic calorimetry): 263.42 ± 1.3 J/K/mol
- molar heat capacity at constant pressure (235.72 K, Metastable crystal, Small (less than 1 g) adiabatic calorimetry): 191.63 ± 0.97 J/K/mol
- molar heat capacity at constant pressure (236.26 K, Crystal, Vacuum adiabatic calorimetry): 191.4 ± 0.39 J/K/mol
- molar heat capacity at constant pressure (236.63 K, Crystal, Vacuum adiabatic calorimetry): 191.86 ± 0.39 J/K/mol
- molar heat capacity at constant pressure (236.7 K, Liquid, Small (less than 1 g) adiabatic calorimetry): 263.12 ± 1.3 J/K/mol
- molar heat capacity at constant pressure (237.29 K, Liquid, Small (less than 1 g) adiabatic calorimetry): 263.79 ± 1.3 J/K/mol
- molar heat capacity at constant pressure (237.33 K, Liquid, Small (less than 1 g) adiabatic calorimetry): 263.86 ± 1.3 J/K/mol
- molar heat capacity at constant pressure (237.63 K, Crystal, Vacuum adiabatic calorimetry): 192.56 ± 0.39 J/K/mol
- molar heat capacity at constant pressure (238.14 K, Metastable crystal, Small (less than 1 g) adiabatic calorimetry): 193.62 ± 0.97 J/K/mol
- molar heat capacity at constant pressure (238.71 K, Crystal, Vacuum adiabatic calorimetry): 193.49 ± 0.39 J/K/mol
- molar heat capacity at constant pressure (238.79 K, Liquid, Small (less than 1 g) adiabatic calorimetry): 264.33 ± 1.3 J/K/mol
- molar heat capacity at constant pressure (239.01 K, Crystal, Vacuum adiabatic calorimetry): 193.7 ± 0.39 J/K/mol
- molar heat capacity at constant pressure (239.3 K, Liquid, Small (less than 1 g) adiabatic calorimetry): 264.2 ± 1.3 J/K/mol
- molar heat capacity at constant pressure (239.63 K, Liquid, Small (less than 1 g) adiabatic calorimetry): 264.39 ± 1.3 J/K/mol
- molar heat capacity at constant pressure (240.21 K, Liquid, Small (less than 1 g) adiabatic calorimetry): 263.92 ± 1.3 J/K/mol
- molar heat capacity at constant pressure (240.38 K, Crystal, Vacuum adiabatic calorimetry): 194.84 ± 0.4 J/K/mol
- molar heat capacity at constant pressure (240.53 K, Metastable crystal, Small (less than 1 g) adiabatic calorimetry): 195.14 ± 0.98 J/K/mol
- molar heat capacity at constant pressure (240.78 K, Crystal, Vacuum adiabatic calorimetry): 195.37 ± 0.4 J/K/mol
- molar heat capacity at constant pressure (240.89 K, Liquid, Small (less than 1 g) adiabatic calorimetry): 264.51 ± 1.3 J/K/mol
- molar heat capacity at constant pressure (241.32 K, Liquid, Small (less than 1 g) adiabatic calorimetry): 264.76 ± 1.3 J/K/mol
- molar heat capacity at constant pressure (241.76 K, Crystal, Vacuum adiabatic calorimetry): 196.04 ± 0.4 J/K/mol
- molar heat capacity at constant pressure (241.93 K, Liquid, Small (less than 1 g) adiabatic calorimetry): 265.02 ± 1.3 J/K/mol
- molar heat capacity at constant pressure (242.32 K, Liquid, Small (less than 1 g) adiabatic calorimetry): 264.51 ± 1.3 J/K/mol
- molar heat capacity at constant pressure (242.39 K, Crystal, Vacuum adiabatic calorimetry): 197.23 ± 0.4 J/K/mol
- molar heat capacity at constant pressure (242.86 K, Crystal, Vacuum adiabatic calorimetry): 197.07 ± 0.4 J/K/mol
- molar heat capacity at constant pressure (242.91 K, Metastable crystal, Small (less than 1 g) adiabatic calorimetry): 197.2 ± 0.99 J/K/mol
- molar heat capacity at constant pressure (243.14 K, Crystal, Vacuum adiabatic calorimetry): 197.19 ± 0.4 J/K/mol
- molar heat capacity at constant pressure (243.34 K, Liquid, Small (less than 1 g) adiabatic calorimetry): 265.19 ± 1.3 J/K/mol
- molar heat capacity at constant pressure (244.23 K, Liquid, Small (less than 1 g) adiabatic calorimetry): 265.58 ± 1.3 J/K/mol
